Measured values published in US10202604B2, “Methods of using microRNA-141” (Stemirna Therapeutics Co., Ltd., priority 2016, dated 2019).

Legend:
CD44+ Du145 cells = assay: Clonal and sphere formation assays; type: cell-based, human; conditions: miR-141 vs NC oligos, 30 nM, 48 h transfection
Procedure: Average % of CD44^+ cells (as determined by flow analysis; n=3-5) is indicated for each cell type (UD, undetectable). […] Purified CD44^+ Du145 cells were transfected with NC or miR-141 oligos (30 nM, 48 h) and then plated for clonal (1D & 1E) and sphere (1F) assays. Bars represent mean±SD. *, P<0.05; **, P<0.01. […] Shown are tumor images, cell numbers injected (100,000 cells per injection for all models), site of injection (s.c, subcutaneously) and days (d) when tumors were harvested. Tumor weight and incidences with corresponding P values are also indicated. ns, not significant. […] For 1st generation (1°) sphere assays, 1,000 cells per well were plated in triplicate for each group in 12-well plate and results scored in 11 days. For 2nd generation (2°), the 1° spheres were harvested, digested with Collagenase and Trypsin into single cells, 1,000 cells/well were plated, and results scored in 10 days. Quantification of the colonies was plotted (1 L; **P<0.01). […]
For clonal assays, cultured prostate cancer cells or human prostate cancer cells freshly purified from patient primary tumors were plated at a clonal density (i.e., 100 cells/well) in a 6-well plate. The number of holoclones (33) was counted several days later. […] Floating spheres that arose in 1-2 weeks were counted. […]

Du145 cells = assay: Boyden chamber Matrigel invasion assay; type: cell-based, human; conditions: miR-141 oligos 30 nM, 48 h vs NC
Procedure: FIGS. 3A-3J show partial suppression of epithelial to mesenchymal transition by miR-141 and CD44 as a direct target of miR-141. FIGS. 3A-3B show qPCR analysis of epithelial to mesenchymal transition markers in bulk (FIG. 3A) or CD44^+ (FIG. 3B) Du145 cells transfected with the miR-141 oligos (30 nM; 48 h). Results were presented as the relative expression levels over the cells transfected with the NC oligos. […] GAPDH was used as control and the relative protein levels after normalizing to GAPDH and NC controls were indicated below each lane. […] Shown below is the actual sequence in the region with the mutated miR-141 binding sequence indicated in grey (below). […] Shown are representative images. […]
Du145 cells transfected with NC or miR-141 oligos at the two doses and time intervals indicated were used in Western blotting. Indicated below are relative expression levels (normalized to respective GAPDH and compared to NC) of each protein determined by densitometric scanning of the individual bands. […]
FIG. 6A: Putative binding site of miR-141 in EZH2 3′-UTR. […] Relative protein levels were measured by densitometry and normalized to GAPDH levels (indicated below). […]
For Boyden Chamber invasion assays, Biocoat Matrigel Invasion Chamber (BD, Franklin Lakes, N.J.) was employed following the manufacturer's instructions. […] Representative images were taken for each membrane and cells were counted. […]

miR-141: miR-141 mirVana mimics (Life Technologies); microRNA-141 oligonucleotide may have SEQ ID NO: 1; in some experiments over-expressed by lentiviral vectors (UAACACUGUCUGGUAAAGAUGG; listed as RNA, further chemistry not given here) [miR-141 mirVana mimics (Life Technologies); in some experiments over-expressed by lentiviral vectors]
inhibited: clonogenic capacity (CD44+ Du145 cells) | sphere-forming capacity (CD44+ Du145 cells) | Du145 cell invasion (Du145 cells)
